Test results from PMC7948482, “Erythrocytes efficiently utilize exogenous sphingosines for S1P synthesis and export via Mfsd2b” (The Journal of Biological Chemistry, 2021).

Molecular target: T1, Mfsd2b (Mus musculus, UniProt Q3T9M1)
T1 construct: full-length native transporter in isolated mouse erythrocytes; Mfsd2b knockout erythrocytes as control
T1 sequence (Q3T9M1 1-494): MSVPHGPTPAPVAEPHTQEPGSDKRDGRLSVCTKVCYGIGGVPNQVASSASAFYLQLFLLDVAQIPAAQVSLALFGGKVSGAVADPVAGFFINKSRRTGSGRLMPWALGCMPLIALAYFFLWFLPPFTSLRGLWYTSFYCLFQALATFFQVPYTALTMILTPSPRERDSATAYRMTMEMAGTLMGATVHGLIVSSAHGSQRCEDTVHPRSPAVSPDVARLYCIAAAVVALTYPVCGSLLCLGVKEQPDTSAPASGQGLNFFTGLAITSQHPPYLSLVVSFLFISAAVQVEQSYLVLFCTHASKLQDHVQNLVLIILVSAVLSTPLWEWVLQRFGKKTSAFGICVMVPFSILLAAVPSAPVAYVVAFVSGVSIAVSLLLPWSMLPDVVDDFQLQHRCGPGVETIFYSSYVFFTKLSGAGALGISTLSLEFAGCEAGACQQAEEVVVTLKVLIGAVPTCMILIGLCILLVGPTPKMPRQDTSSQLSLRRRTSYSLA
Experiment: [[…]-3H]-S1P export, WT versus Mfsd2b KO erythrocytes
Type: cell-based
Conditions: S1P formed inside from [3-3H]-Sph; 0.5% BSA acceptor; pH 7.4; labelled compound

CCCCCCCCCCCCC/C=C/[C@@H](O)[C@@H](N)COP(=O)(O)O [S1P]
[3-3H]-S1P export, WT versus Mfsd2b KO erythrocytes: Mfsd2b KO erythrocytes showed a significant reduction of S1P transport
